In ChEMBL document CHEMBL2311250 (Bioorg Med Chem Lett, 2013):
In brackets after ≈: the same amount, converted by molar mass.

What was measured:
[1] = Half life in human liver microsomes; format: ADME, Microsome
[2] = Aqueous solubility of the compound at ph 6.5; format: physicochemical
[3] = target: T1, Tyrosine-protein kinase receptor TYRO3 (Homo sapiens, UniProt Q06418); assay: Inhibition of Sky (unknown origin) by ELISA kinase assay in presence of 60 uM ATP
T1 sequence (Q06418 whole entry): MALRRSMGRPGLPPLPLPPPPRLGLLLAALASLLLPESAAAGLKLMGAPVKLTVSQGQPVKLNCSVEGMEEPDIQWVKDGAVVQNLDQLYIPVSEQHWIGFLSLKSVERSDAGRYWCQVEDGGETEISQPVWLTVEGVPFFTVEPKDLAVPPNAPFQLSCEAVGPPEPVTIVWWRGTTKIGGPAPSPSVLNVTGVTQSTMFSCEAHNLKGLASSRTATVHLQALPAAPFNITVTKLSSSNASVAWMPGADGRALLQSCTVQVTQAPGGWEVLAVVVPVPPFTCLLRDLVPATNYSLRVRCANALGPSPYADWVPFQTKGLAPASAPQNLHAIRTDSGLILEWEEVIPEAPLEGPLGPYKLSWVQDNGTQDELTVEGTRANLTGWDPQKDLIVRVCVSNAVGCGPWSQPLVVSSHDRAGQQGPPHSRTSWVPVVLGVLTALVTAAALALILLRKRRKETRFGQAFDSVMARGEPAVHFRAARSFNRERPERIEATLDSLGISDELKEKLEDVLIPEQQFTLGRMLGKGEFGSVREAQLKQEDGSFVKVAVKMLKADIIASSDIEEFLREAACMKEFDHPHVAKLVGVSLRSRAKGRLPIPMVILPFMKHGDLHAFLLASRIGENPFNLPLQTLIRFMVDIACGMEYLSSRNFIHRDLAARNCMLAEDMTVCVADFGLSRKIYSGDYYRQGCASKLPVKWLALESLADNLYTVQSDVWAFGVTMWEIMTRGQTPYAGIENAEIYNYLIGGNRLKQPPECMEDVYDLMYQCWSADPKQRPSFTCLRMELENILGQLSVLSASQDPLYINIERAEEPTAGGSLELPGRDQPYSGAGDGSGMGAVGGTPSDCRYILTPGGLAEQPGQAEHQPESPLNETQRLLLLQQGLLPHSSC

[4] = Permeability of the compound by PAMPA; format: ADME; settings: read-out: permeability
hERG (KCNH2) = hERG (KCNH2) (Homo sapiens, UniProt Q12809); assay: Displacement of [3H]dofetilide from human ERG at 10 uM; settings: probe [3H]dofetilide
Platelet = assay: Inhibition of platelet aggregation (unknown origin); format: functional, cell-based
[5] = Half life in rat liver microsomes; format: ADME, Microsome
[6] = Cmax in Sprague-Dawley rat at 1 mg/kg, iv and 5 mg/kg, po; format: ADME, organism-based; settings: in vivo
[7] = AUC in Sprague-Dawley rat at 1 mg/kg, iv and 5 mg/kg, po; format: ADME, organism-based; settings: plasma
[8] = Oral bioavailability in Sprague-Dawley rat at 5 mg/kg; format: ADME, organism-based; settings: in vivo
[9] = Half life in Sprague-Dawley rat at 1 mg/kg, iv and 5 mg/kg, po; format: ADME, organism-based; settings: in vivo
[10] = Volume of distribution at steady state in Sprague-Dawley rat at 1 mg/kg, iv and 5 mg/kg, po; format: ADME, organism-based; settings: in vivo, read-out: Vdss
[11] = Clearance in Sprague-Dawley rat at 1 mg/kg, iv and 5 mg/kg, po; format: ADME, organism-based; settings: in vivo
[12] = target: Tyrosine-protein kinase Lck (Homo sapiens, UniProt P06239); assay: Inhibition of LCK (unknown origin) in presence of ATP
[13] = target: Tyrosine-protein kinase ABL1 (Homo sapiens, UniProt P00519); assay: Inhibition of ABL (unknown origin) in presence of ATP
[14] = target: Fibroblast growth factor receptor 1 (Homo sapiens, UniProt P11362); assay: Inhibition of FGFR1 (unknown origin) in presence of ATP
[15] = target: RAC-alpha serine/threonine-protein kinase (Homo sapiens, UniProt P31749); assay: Inhibition of AKT1 (unknown origin) in presence of ATP
[16] = target: Casein kinase I isoform delta (Homo sapiens, UniProt P48730); assay: Inhibition of CK1-delta (unknown origin) in presence of ATP
Insulin receptor = Insulin receptor (Homo sapiens, UniProt P06213); assay: Inhibition of INSR (unknown origin) in presence of ATP
[17] = target: Mitogen-activated protein kinase kinase kinase kinase 4 (Homo sapiens, UniProt O95819); assay: Inhibition of MAP4K4 (unknown origin) in presence of ATP
[18] = target: Dual specificity protein kinase CLK1 (Homo sapiens, UniProt P49759); assay: Inhibition of CLK1 (unknown origin) in presence of ATP
[19] = target: Calcium/calmodulin-dependent protein kinase type 1 (Homo sapiens, UniProt Q14012); assay: Inhibition of CAMK1 (unknown origin) in presence of ATP
[20] = target: Myosin light chain kinase 2, skeletal/cardiac muscle (Homo sapiens, UniProt Q9H1R3); assay: Inhibition of MYLK2 (unknown origin) in presence of ATP
[21] = target: Mitogen-activated protein kinase kinase kinase 9 (Homo sapiens, UniProt P80192); assay: Inhibition of MAP3K9 (unknown origin) in presence of ATP
CYP2D6 = CYP2D6 (Homo sapiens, UniProt P10635); assay: Inhibition of CYP2D6 (unknown origin) at 3 uM; format: ADME
CYP2D6, sequence (P10635 whole entry): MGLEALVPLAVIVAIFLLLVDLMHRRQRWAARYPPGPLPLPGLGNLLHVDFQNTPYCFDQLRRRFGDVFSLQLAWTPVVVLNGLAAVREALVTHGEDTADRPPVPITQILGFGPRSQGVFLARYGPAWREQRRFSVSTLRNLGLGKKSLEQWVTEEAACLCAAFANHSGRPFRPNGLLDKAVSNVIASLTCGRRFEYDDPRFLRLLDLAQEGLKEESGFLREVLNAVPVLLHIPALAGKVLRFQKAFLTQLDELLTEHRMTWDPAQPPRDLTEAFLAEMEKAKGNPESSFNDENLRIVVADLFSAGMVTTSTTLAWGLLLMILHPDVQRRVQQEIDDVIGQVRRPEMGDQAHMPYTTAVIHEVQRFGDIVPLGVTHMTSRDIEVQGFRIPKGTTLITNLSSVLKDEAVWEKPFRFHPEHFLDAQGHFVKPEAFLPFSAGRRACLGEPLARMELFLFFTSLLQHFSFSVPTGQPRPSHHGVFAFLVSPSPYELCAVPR

Tyrosine-protein kinase Lck, sequence (P06239 whole entry): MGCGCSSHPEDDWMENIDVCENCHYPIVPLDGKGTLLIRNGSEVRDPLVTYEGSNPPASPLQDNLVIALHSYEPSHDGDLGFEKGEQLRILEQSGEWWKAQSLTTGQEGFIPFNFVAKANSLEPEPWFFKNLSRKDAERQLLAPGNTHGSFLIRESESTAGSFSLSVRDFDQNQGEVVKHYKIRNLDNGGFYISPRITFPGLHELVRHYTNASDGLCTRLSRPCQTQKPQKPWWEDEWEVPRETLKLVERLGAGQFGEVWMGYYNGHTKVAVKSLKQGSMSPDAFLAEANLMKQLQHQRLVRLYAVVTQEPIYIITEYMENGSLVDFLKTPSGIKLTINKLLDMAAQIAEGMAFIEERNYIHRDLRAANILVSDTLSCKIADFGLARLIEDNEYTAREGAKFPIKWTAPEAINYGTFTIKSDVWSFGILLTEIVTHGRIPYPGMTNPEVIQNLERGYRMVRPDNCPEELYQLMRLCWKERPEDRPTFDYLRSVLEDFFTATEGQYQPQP
hERG (KCNH2), sequence (Q12809 whole entry): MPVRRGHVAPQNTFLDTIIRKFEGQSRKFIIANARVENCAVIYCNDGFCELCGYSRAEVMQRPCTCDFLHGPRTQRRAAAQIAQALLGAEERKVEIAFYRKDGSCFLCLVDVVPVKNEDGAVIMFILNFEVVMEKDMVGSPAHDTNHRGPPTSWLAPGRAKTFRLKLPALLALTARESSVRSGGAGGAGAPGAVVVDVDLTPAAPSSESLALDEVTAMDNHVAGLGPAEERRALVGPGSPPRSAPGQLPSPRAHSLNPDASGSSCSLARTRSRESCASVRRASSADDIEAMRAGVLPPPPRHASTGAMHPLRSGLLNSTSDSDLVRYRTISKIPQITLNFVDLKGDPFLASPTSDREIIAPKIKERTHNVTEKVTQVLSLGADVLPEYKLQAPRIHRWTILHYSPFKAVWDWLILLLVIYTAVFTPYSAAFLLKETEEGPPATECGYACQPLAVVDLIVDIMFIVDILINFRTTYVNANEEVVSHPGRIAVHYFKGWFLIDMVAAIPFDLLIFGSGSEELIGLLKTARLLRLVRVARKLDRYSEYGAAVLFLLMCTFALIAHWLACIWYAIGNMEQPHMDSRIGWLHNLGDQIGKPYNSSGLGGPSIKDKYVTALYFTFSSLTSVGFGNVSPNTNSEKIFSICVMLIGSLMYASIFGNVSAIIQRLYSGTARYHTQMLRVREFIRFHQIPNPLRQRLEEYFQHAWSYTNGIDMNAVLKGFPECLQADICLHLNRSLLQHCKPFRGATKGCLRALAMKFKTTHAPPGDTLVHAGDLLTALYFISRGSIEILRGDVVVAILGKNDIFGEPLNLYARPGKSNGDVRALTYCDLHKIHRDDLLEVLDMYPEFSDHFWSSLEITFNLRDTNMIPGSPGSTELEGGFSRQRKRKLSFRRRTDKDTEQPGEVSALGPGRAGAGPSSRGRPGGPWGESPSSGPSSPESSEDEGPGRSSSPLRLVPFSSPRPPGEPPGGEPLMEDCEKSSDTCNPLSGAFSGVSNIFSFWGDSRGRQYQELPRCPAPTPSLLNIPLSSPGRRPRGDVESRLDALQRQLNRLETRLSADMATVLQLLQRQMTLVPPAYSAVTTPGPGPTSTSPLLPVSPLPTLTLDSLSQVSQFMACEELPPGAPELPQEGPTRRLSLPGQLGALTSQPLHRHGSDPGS
Tyrosine-protein kinase ABL1, sequence (P00519 whole entry): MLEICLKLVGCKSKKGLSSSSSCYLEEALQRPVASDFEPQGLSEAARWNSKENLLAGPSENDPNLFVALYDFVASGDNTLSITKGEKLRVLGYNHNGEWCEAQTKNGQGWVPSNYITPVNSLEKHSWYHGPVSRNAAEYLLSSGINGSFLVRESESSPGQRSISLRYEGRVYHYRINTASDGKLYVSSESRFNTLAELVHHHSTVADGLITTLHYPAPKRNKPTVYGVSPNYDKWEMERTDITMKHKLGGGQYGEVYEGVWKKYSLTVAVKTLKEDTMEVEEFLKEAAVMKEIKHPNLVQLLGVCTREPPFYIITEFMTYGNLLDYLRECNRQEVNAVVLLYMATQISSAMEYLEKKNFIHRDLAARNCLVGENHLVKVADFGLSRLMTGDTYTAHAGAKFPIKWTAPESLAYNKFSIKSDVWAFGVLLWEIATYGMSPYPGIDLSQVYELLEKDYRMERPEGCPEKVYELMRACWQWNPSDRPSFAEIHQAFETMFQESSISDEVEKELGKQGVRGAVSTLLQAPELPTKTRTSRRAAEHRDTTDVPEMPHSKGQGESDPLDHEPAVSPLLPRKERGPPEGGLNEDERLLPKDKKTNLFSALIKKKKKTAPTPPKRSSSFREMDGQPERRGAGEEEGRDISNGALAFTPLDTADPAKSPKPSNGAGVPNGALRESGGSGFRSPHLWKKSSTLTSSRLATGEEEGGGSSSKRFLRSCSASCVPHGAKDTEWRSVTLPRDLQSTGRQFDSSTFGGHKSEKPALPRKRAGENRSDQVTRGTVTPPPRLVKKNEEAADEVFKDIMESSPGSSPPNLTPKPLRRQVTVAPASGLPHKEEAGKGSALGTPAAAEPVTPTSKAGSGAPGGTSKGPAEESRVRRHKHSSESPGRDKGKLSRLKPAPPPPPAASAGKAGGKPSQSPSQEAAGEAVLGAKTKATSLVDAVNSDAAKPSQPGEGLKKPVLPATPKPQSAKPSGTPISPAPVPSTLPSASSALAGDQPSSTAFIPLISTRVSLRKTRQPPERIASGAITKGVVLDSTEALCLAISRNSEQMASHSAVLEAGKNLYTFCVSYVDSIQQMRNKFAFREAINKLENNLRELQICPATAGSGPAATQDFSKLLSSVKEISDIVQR
Dual specificity protein kinase CLK1, sequence (P49759 whole entry): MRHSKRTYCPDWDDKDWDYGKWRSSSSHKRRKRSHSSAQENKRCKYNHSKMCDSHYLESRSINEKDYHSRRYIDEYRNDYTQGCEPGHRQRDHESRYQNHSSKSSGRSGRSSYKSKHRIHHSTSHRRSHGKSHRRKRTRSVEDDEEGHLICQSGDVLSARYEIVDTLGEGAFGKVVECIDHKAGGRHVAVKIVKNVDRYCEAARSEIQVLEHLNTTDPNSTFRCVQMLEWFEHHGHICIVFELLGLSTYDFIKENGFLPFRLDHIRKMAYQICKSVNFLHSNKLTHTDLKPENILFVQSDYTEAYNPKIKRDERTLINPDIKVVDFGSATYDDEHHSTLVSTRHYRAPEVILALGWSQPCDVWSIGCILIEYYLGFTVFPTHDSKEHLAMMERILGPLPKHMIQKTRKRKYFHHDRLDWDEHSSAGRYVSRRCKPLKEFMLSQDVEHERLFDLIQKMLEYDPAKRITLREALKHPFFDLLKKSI
Myosin light chain kinase 2, skeletal/cardiac muscle, sequence (Q9H1R3 whole entry): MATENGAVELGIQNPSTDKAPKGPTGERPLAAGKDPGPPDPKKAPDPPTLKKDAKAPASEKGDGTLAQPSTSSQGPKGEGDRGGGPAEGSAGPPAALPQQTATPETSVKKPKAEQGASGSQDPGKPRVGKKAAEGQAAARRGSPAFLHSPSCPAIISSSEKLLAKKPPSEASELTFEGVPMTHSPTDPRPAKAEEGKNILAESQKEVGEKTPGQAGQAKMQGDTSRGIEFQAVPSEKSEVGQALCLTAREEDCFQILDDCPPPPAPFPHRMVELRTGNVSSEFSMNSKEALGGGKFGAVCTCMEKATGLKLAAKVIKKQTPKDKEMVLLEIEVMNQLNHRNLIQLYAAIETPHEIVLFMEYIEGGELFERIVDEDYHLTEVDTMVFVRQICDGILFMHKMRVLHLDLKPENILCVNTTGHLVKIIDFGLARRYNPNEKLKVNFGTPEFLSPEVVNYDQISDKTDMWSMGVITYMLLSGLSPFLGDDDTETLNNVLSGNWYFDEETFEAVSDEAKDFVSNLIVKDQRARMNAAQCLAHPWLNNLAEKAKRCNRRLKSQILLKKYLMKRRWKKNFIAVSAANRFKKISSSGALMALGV
Casein kinase I isoform delta, sequence (P48730 whole entry, canonical isoform): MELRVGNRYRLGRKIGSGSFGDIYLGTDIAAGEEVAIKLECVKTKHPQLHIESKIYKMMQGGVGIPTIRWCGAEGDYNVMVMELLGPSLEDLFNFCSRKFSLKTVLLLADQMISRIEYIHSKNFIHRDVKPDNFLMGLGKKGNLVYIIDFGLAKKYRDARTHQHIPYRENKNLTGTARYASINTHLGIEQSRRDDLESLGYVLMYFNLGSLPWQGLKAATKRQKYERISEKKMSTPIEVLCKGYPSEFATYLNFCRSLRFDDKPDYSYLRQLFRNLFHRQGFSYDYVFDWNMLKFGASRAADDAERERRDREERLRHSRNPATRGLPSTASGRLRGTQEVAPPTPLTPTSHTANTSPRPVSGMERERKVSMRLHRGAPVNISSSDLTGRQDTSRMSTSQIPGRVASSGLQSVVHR

Compound	half-life [1] [min]	solubility [2] [µM]	IC50 [3] [µM]	Papp [4] [×10⁻⁶ cm/s]	inhibition at 10 µM (hERG (KCNH2)) [%]	IC50 (Platelet) [µM]	half-life [5] [min]	other results
CC[C@@H](CO)Nc1nc(Nc2cc(Cl)cc(Cl)c2)ncc1C(=O)NC1CCN(C)CC1	37	3.5 (≈ 1.64 µg/mL)	0.003	2	3.4			
COc1ccccc1CNc1ncc(C(=O)NCCCN2CCCC2=O)c(NC2CCCC2)n1		81.6 (≈ 38.1 µg/mL)		1.5	7	46	16	
O=C(NCCCN1CCCC1=O)c1cnc(NCc2cc(Cl)ccc2Cl)nc1NC1CCCC1		3.9 (≈ 1.97 µg/mL)		0.1	23	28	4	
O=C(NCCCN1CCOC1=O)c1cnc(NCc2cc(Cl)ccc2Cl)nc1NC1CCCC1		1.3 (≈ 0.66 µg/mL)			33	29	< 5	
COc1ccccc1CNc1ncc(C(=O)NCCNC(C)=O)c(NC2CCCC2)n1	5	7.8 (≈ 3.33 µg/mL)	0.38	1.9	35			
COc1ccccc1CNc1ncc(C(=O)NCCc2nnn[nH]2)c(NC2CCCC2)n1	60	12 (≈ 5.25 µg/mL)	1.3	21	79		22	
COc1ccccc1CNc1ncc(C(=O)NCCCCN(C)C)c(NC2CCCC2)n1	40	200 (≈ 88.1 µg/mL)	0.5		28	24		
COc1ccccc1CNc1ncc(C(=O)NC2CCN(C)CC2)c(NC2CCCC2)n1	34	80 (≈ 35.1 µg/mL)	0.52	1.2	27	8.8	56	Cmax [6]: 74 ng/mL; AUC [7]: 302 ng·h/mL; bioavailability [8]: 41%; half-life [9]: 210 min; Vd [10]: 18 L/kg; clearance [11]: 73 mL/min/kg; IC50 [12]: 15 µM; IC50 [13]: 21.1 µM
CN1CCC(NC(=O)c2cnc(NCc3cc(Cl)ccc3Cl)nc2NC2CCCC2)CC1	14	7.8 (≈ 3.72 µg/mL)	0.27	0.02	47	7.2	60	Cmax [6]: 35 ng/mL; AUC [7]: 680 ng·h/mL; IC50 [14]: 12.5 µM; bioavailability [8]: 32%; half-life [9]: 480 min; IC50 [15]: 18.6 µM; Vd [10]: 25 L/kg; clearance [11]: 40 mL/min/kg; IC50 [16]: 2.39 µM; IC50 (Insulin receptor): 18.6 µM; IC50 [12]: 1.36 µM; IC50 [13]: 3.17 µM
CN1CCC(NC(=O)c2cnc(NCc3cc(Cl)ccc3Cl)nc2NC2CCNCC2)CC1	38	200 (≈ 98.5 µg/mL)	0.19	< 0.1	> 50	8.5	60	Cmax [6]: 25 ng/mL; bioavailability [8]: 0%; half-life [9]: 12 min; Vd [10]: 0.4 L/kg; clearance [11]: 40 mL/min/kg
CN1CCC(NC(=O)c2cnc(NCc3cc(Cl)ccc3Cl)nc2NC2CCC(N(C)C)CC2)CC1 (stereo not given)	23	89 (≈ 47.6 µg/mL)	0.041	2	1.6		57	
CN1CCC(NC(=O)c2cnc(Nc3cc(Cl)cc(Cl)c3)nc2NC2CCC(N(C)C)CC2)CC1 (stereo not given)	120	200 (≈ 104 µg/mL)	0.002	0.3	6.7	1.4	60	IC50 [17]: 0.12 µM; IC50 [18]: 3.45 µM; IC50 [19]: 19.7 µM; IC50 [20]: 8.27 µM; IC50 [21]: 12.2 µM; IC50 [13]: 7.61 µM
CN1CCC(NC(=O)c2cnc(Nc3cc(Cl)cc(Cl)c3)nc2NC2CCOCC2)CC1	35	40 (≈ 19.2 µg/mL)	0.009	< 0.1				
CN1CCC(NC(=O)c2cnc(Nc3cc(Cl)cc(Cl)c3)nc2N[C@H]2CCCCNC2=O)CC1	41	2.3 (≈ 1.16 µg/mL)	0.006	0.2	4			
CN1CCC(NC(=O)c2cnc(Nc3cc(Cl)cc(Cl)c3)nc2N[C@@H]2COC[C@H]2O)CC1	74	40 (≈ 19.3 µg/mL)	0.01	1.4	0.98	9.6	60	IC50 [17]: 2.48 µM; bioavailability [8]: 0%; half-life [9]: 780 min; IC50 [18]: 11.2 µM; Vd [10]: 2.7 L/kg; clearance [11]: 55 mL/min/kg; IC50 [16]: 4.5 µM; IC50 [20]: 24.9 µM; IC50 [21]: 13.4 µM; IC50 [12]: 3.68 µM
Cc1cc(-c2cnc(Nc3cc(Cl)cc(Cl)c3)nc2NC2CCNCC2)on1	21	5.2 (≈ 2.18 µg/mL)	0.092	0.2	1.3		3	inhibition at 3 µM (CYP2D6): 81%
O[C@@H]1COC[C@H]1Nc1nc(Nc2cc(Cl)cc(Cl)c2)ncc1-c1cccnc1	120	200 (≈ 83.7 µg/mL)	0.044	1	1.5		31	inhibition at 3 µM (CYP2D6): 88%
O[C@@H]1COC[C@H]1Nc1nc(Nc2cc(Cl)cc(Cl)c2)ncc1-c1ccc(F)cc1	48	200 (≈ 87.1 µg/mL)	0.15	< 0.01	2.7		60	inhibition at 3 µM (CYP2D6): 24%
O[C@@H]1COC[C@H]1Nc1nc(Nc2cc(Cl)cc(Cl)c2)ncc1Br	30	5.2 (≈ 2.18 µg/mL)	0.015	0.3	> 100		31	inhibition at 3 µM (CYP2D6): 1%
COc1ccccc1CNc1ncc(C(=O)NCCCO)c(NC2CCCC2)n1	11	7.8 (≈ 3.12 µg/mL)	0.16	0.9	35	46		
